Laboratory results taken from US20240270737A1, “SMALL MOLECULAR INHIBITORS OF STING SIGNALING COMPOSITIONS AND METHODS OF USE” (STINGINN INC., priority 2021, published 2024).

How the values were obtained:
STING activation, Cxcl10 = test: STING activation in MEFs stimulated with ISD (qPCR of Cxcl10, Western blot, confocal); assay type: cell-based, mouse
Protocol: FIG. 1E are photographs showing Western blot analysis in murine fibroblasts (MEFs) treated the same as FIG. 1A, according to an embodiment of the invention;
FIG. 1F are photographs showing confocal analysis in MEFs treated the same as FIG. 1A, according to an embodiment of the invention;
MEFs were treated with W1 and then stimulated with cytoplasmic DNA (ISD) and examined Cxcl10 expression by qPCR and STING-dependent phosphorylation of TBK1 and IRF3.
Mouse embryonic fibroblasts (MEFs) were obtained from E13.5 embryos by a standard procedure. Bone Marrow Derived Macro-phages (BMDM) were isolated from hind-limb femurs of 8-10 weeks old WT and Trex1 KO (TKO) mice. The hematopoietic cells from the bone marrow were cultured in complete DMEM (Invitrogen) including 10 ng/ml of Mouse Recombinant Colony-Stimulating Factor (M-CSF, R&D Systems) for 10 to 14 days.
(§1) Quantitative Real time PCR (qPCR) Total RNA were reverse-transcribed using M-MLV Reverse Transcriptase (Promega). Real-time PCR was performed using Taqman Gene Expression Assay (Applied Biosystems) for innate immune genes and inflammatory cytokines.

[1] = test system: IRF3 translocation induced by dsDNA (ISD); test: IRF3 translocation inhibition, confocal/immunofluorescence after ISD transfection; assay type: cell-based; settings: Homo sapiens, % means blockage of IRF3 translocation induced by dsDNA (ISD)
Protocol: Inhibition of IFNβ expression was measured by Luciferase induction at 24 hours after transfection of ISD. […]. […] FIG. 3H qPCR of IFNβ 1 performed in MEFs treated same as in FIG. 3A. FIG. 3I qPCR of CCL5 performed in MEFs treated same as in FIG. 3A.
(§2) Immunofluorescence Microscopy: Cells were cultured and treated in their appropriate media on Lab-Tek II chamber slides. Cell were fixed with 4% paraformaldehyde for 15 minutes in at 37° C. and permeabilized with 0.05% Triton X-100 for 5 minutes at room temperature. Immunostaining was performed with rabbit-anti-STING polyclonal, rabbit-anti-IRF3 (Santa Cruz Biotechnology) or rabbit-anti-p65 (Cell Signaling) followed by fluorescence conjugated secondary antibodies (FITC-goat-anti-rabbit) (Invitrogen).

pIRF3, pSTING = test: Western blot of pIRF3, pSTING, pTBK1 after ISD transfection in hTERT cells; assay type: cell-based, human
Protocol: FIG. 1C are photographs showing Western blot analysis of STING, phospho-TBK1 (pTBK1) and phospho-IRF3 (pIRF3) performed at 6 hours after ISD transfection with/without W1 treatment same as FIG. 1A, Mock is shown (210), ISD treatment only (220) was used as a control, according to an embodiment of the invention;
Immunoblot analysis: Equal amounts of proteins were resolved on sodium dodecyl sulfate (SDS)-Polyacrylamide gels and then transferred to polyvinylidene fluoride (PVDF) membranes (Millipore). After blocking with 5% Blocking Reagent, membranes were incubated with various primary antibodies (and appropriate secondary antibodies). The image was resolved using an enhanced chemiluminescence system ECL (Thermo Scientific) and detected by autoradiography (Kodak). Antibodies: rabbit polyclonal antibody against STING was developed in our laboratory as described previously in Ishikawa et al, 2008; other antibodies were obtained from following sources: β-actin (Sigma Aldrich), p-IRF3 (Cell Signaling), IRF3 (Santa Cruz Biotechnology), p-p65 (Cell Signaling), p65 (Cell Signaling), p-TBK1 (Cell Signaling), TBK1 (Abcam), cGAS (Cell Signaling).

STING trafficking = test: Confocal analysis of STING trafficking in hTERT cells; assay type: cell-based, human; settings: 6 hours after ISD transfection
Protocol: FIG. 1D are photographs showing confocal analysis for STING trafficking was performed at 6 hours after ISD transfection with/without W1, treatment same as FIG. 1A, according to an embodiment of the invention;
as §2

[2] = test system: IFNβ expression and production; test: IFNβ expression and production in normal hTERT cells (qPCR, ELISA); assay type: cell-based, human; settings: ISD transfection
Protocol: The ability of compound W1 administered onto normal hTERT cells to prevent cytosolic DNA from activating STING was assessed (FIGS. 1B-H). […] In addition, the level of STING phosphorylation (STING is phosphorylated following activation) and the subsequent phosphorylation of TBK1, the kinase of IRF3 was assessed. Phosphorylation of TBK1 and IRF3 are required for activation of the type I IFN promoter.
Interferon R Elisa analysis: Interferon R Elisa was performed using either the IFNβ human ELISA Kit from Invitrogen or the Human IFNβ ELISA Kit from PBL Interferon Source following the manufacturer's protocol.
as §1

In the case of `Cc1cc([N+](=O)[O-])ccc1S(=O)(=O)Nc1nc2cc(C(F)(F)F)ccc2[nH]1` [Compound W1, 2-methyl-4-nitro-N-[5-(trifluoromethyl)-1H-1,3-benzodiazol-2-yl]benzene-1-sulfonamide], the “production of STING-inducible cytokine Cxcl10 in response to ISD” value (STING activation, Cxcl10) is reported as “dramatically decreased”, the inhibition at 25 µM [1] is reported as 40 to 50% and the inhibition at 10 µM (pIRF3, pSTING; Homo sapiens) is reported as under 10%. For the same compound, the “STING phosphorylation and TBK1 and IRF3 phosphorylation” value (pIRF3, pSTING; hTERT cells, 6 hours after ISD transfection) was “robustly prevented”, the STING trafficking (STING trafficking) was “effectively preventing STING trafficking” and the “IFNβ expression and production” value [2] was “dramatically decreased”.
